Consider 2 compounds from patent US8877785B2, “Methods and compositions for enhancing sensitivity of cytotoxic drugs with timely combinatorial therapy with carboxyamidotriazole orotate” (Tactical Therapeutics Inc, priority 2009, dated 2014).

The conditions of data set [1]: given in combination (CTO Q1Dx14, temozolomide Q4Dx3); MTD = dose without death and no more than 20% mean body weight loss.
Text: The purpose of the first experiment was to evaluate the tolerance of female athymic NCr-nu/nu mice to the combination treatment of 5-amino-1-(4-(4-chlorobenzoyl)-3,5-dichlorobenzyl)-1,2,3-triazole-4-carboxyamide orotate (CTO) and a cytotoxic chemotherapeutic agent selected from the group consisting of temozolomide, 5-FU, methotrexate, doxorubicin and daunorubicin.
Polyethylene glycol (PEG 400, MW 400) was purchased from Aldrich Chemistry. Deionized water was purchased from LabChem, Inc. Klucel (hydroxypropyl cellulose) was purchased from Aldrich. Saline (physiological saline solution, for animal use only) was purchased from Nova-Teck, Inc. Tween 80 (T80, polysorbate 80) was purchased from Fisher Scientific. CTO (MW 580.76) was stored at room temperature protected from light upon receipt. CTO was formulated once a week (on Days 1 and 8) at a concentration of 51.3 mg/mL in 40% PEG 400 in deionized water. Temozolomide® (temozolomide, Schering Co., 20 mg/capsule) was prepared on each day treatment by adding several drops of T80 to the powder, and then adding 0.3% Klucel in saline to yield a concentration of 4.5 mg/mL.
The study consisted of four groups of five mice per group for a total of 25 mice on Day 1. […]
Data set [2] concerns human LOX IMVI melanoma xenografts. Put plainly: Antitumor activity against SC-implanted human LOX IMVI melanoma xenografts (experiment TTI-6A). The data set is classed as in vivo, mice. The text has this:
The purpose of the experiment TTI-6A was to evaluate the antitumor activity of CTO when administered in combination with temozolomide against subcutaneously (SC)-implanted human LOX IMVI melanoma xenografts in female, athymic NCr-nu/nu mice. Female six-week-old athymic NCr-nu/nu mice were purchased from Charles River Laboratories (Wilmington, Mass.). Human LOX IMVI melanoma cells were maintained as an ascites passage. […] The day of tumor fragment implantation was designated as Day 0.
(§1) CTO was administered to mice by exact individual animal's body weight on each day of treatment, with the injection volume being 0.1 mL/10 g body weight. temozolomide dosing formulations were administered to mice within 30 minutes of formulation by exact individual body weight on each day of treatment, with the injection volume being 0.2 mL/10 g body weight.
The study consisted of nine groups of ten mice per group. Animals in Group 1 were treated with the CTO vehicle (40% PEG 400 in deionized water) on a Q1Dx14 schedule (Days 6-19) in combination with the temozolomide vehicle (0.3% Klucel in saline), which was administered on a Q4Dx3 schedule (Days 6, 10, and 14). Animals in Groups 2 and 3 were treated with CTO at doses of 513 and 342 mg/kg/dose, respectively, on a Q1Dx14 schedule. Animals in Groups 4 and 5 were treated with temozolomide at, doses of 90 and 60 mg/kg/dose, respectively, on a Q4Dx3 schedule. Animals in Groups 6 and 7 were treated with CTO on a Q1Dx14 schedule at doses of 513 and 342 mg/kg/dose, respectively, in combination with temozolomide which was administered at a dose of 90 mg/kg/dose on a Q4Dx3 schedule. Animals in Groups 8 and 9 were treated with CTO on a Q1Dx14 schedule at doses of 513 and 342 mg/kg/dose, respectively, in combination with temozolomide which was administered at a dose of 60 mg/kg/dose on a Q4Dx3 schedule.
The SC tumors were measured and the animals were weighed two times a week. Tumor volume was determined by the formula for an ellipsoid sphere: L×W^2/2=mm^3, where L and W refer to the larger and smaller perpendicular dimensions collected at each measurement. The experiment was terminated on Day 35.
Parameters Evaluated—Number of nonspecific deaths, number of complete tumor regressions, number of tumor-free survivors on Day 35, and the median time for the tumors to reach four tumor mass doublings were determined. Comparison of the median tumor weight in the treatment groups to the median tumor weight in the control group (T/C×100%) on Day 19 (the last day of treatment with CTO and the last day of data collection when mice in the control group were still alive) was used for an additional evaluation of the antitumor efficacy of the combination treatments. […] FIG. 1.
For orientation: A xenograft is tissue or cells of one species grown in another, often human tumour cells in immunodeficient mice.

Data set [3] can be described thus: Body weight loss and deaths in LOX IMVI tumor-bearing athymic NCr-nu/nu mice (experiment TTI-6A). The format is in vivo.
Text: The purpose of the experiment TTI-6A was to evaluate the antitumor activity of CTO when administered in combination with temozolomide against subcutaneously (SC)-implanted human LOX IMVI melanoma xenografts in female, athymic NCr-nu/nu mice. Female six-week-old athymic NCr-nu/nu mice were purchased from Charles River Laboratories (Wilmington, Mass.). Human LOX IMVI melanoma cells were maintained as an ascites passage. Each mouse was implanted SC near the right flank with one million (1×10^6) of the LOX IMVI human melanoma cell from an in vivo passage using a 23 g needle. The day of tumor fragment implantation was designated as Day 0. Individual tumors of 90 animals grew to 126-198 mg in weight (126-198 mm^3 in size) on Day 6 after tumor implantation (Jul. 20, 2011), the day of treatment initiation. Those animals selected with tumors in the proper size range were assigned to nine treatment groups so that the mean tumor weights in all groups on Day 6 were as close to each other as possible (mean tumor weights being 165 or 166 mg, median tumor weights ranging from 162 to 176 mg).
as §1
The study consisted of nine groups of ten mice per group. […]
The SC tumors were measured and the animals were weighed two times a week. Tumor volume was determined by the formula for an ellipsoid sphere: L×W^2/2=mm^3, where L and W refer to the larger and smaller perpendicular dimensions collected at each measurement. […]
Parameters Evaluated—Number of nonspecific deaths, number of complete tumor regressions, number of tumor-free survivors on Day 35, and the median time for the tumors to reach four tumor mass doublings were determined. […]

[4] abbreviates: Group 4: temozolomide 90 mg/kg/dose oral Q4Dx3 alone.
The mark [5] stands for this setting: Group 5: temozolomide 60 mg/kg/dose oral Q4Dx3 alone.

A value given as a limit tells only on which side of the number the result lay.

Take “5-amino-1-(4-(4-chlorobenzoyl)-3,5-dichlorobenzyl)-1,2,3-triazole-4-carboxyamide orotate [CTO]”: in data set [1], the “maximum tolerated dose (MTD)” value is “above 513 mg/kg/dose”. Further, in data set [2] (CTO 513 or 342 mg/kg/dose oral for fourteen consecutive days), the “inhibition of the growth of the human LOX IMVI melanoma xenografts (in words)” value was “measurable inhibition”. The “median tumor growth delay” value in data set [2] (Group 2: CTO 513 mg/kg/dose Q1Dx14 alone) stood at 3.1 days; in data set [2] (Group 3: CTO 342 mg/kg/dose Q1Dx14 alone) it was 1.6 days. In addition, the “T/C value (median tumor weight treated/control x100%) on Day 19” value was found to be 65% in data set [2] (Group 2: CTO 513 mg/kg/dose oral Q1Dx14 alone) and 70% in data set [2] (Group 3: CTO 342 mg/kg/dose oral Q1Dx14 alone).

As to `Cn1nnc2c(C(N)=O)ncn2c1=O` [temozolomide], the “maximum tolerated dose (MTD)” value in data set [1] is listed as more than 90 mg/kg/dose. For the same compound, the “delay in the growth of the median tumor” value in data set [2] (Group 4: temozolomide 90 mg/kg/dose Q4Dx3 alone) worked out at 8.5 days; in data set [2] (Group 5: temozolomide 60 mg/kg/dose Q4Dx3 alone), 3.6 days. For the same compound, the figures for the “T/C value (median tumor weight treated/control x100%) on Day 19” value in data set [2] (setting [4]) and in data set [2] (setting [5]) were 36% and 57%, respectively. Also, the “median time for the tumor to reach four tumor mass doublings” value in data set [2] (setting [4]) was determined as 17.2 days; in data set [2] (setting [5]), 12.3 days. Further, the “maximum mean body weight loss” value in data set [3] (setting [4]) was 7%; in data set [3] (setting [5]) it was 7%; in data set [3] (Groups 4 and 5: temozolomide 90 and 60 mg/kg/dose oral Q4Dx3 alone, both groups), 1.6 to 1.8 g.
